The values that follow come from US5710169A, “Therapeutic heterocycles” (Zeneca Limited, priority 1994, dated 1998).

This test has as its target T1, NK1 receptor (Oryctolagus cuniculus, UniProt G1SEI7).
T1 construct: The left and right branches of the pulmonary artery are isolated from the rest of the lung tissue; from tissue; host or cells: pulmonary artery ring segments with intact endothelium, male New Zealand white rabbit (Oryctolagus cuniculus)
As to the kind of experiment: Rabbit Pulmonary Artery: NK1 in vitro functional assay (Test C). The test is classed as cell-based, New Zealand white rabbit. The conditions noted are these: agonist ASMSP, read-out: pKB (-log molar KB) in Test C (converted). On the procedure: Rabbit Pulmonary Artery: NK1 in vitro functional assay (Test C)
Male New Zealand white rabbits are killed by lethal injection (Nembutal, 60 mg/kg into a cannulated ear vein). Heparin, 0.0025 ml/kg of a 1000 U/ml solution, is injected into the ear vein prior to nembutal in order to decrease blood coagulation. The left and right branches of the pulmonary artery are isolated from the rest of the lung tissue and cut in half to provide four ring segments from each animal. […] Changes in tension are measured on a Grass polygraph via Grass FT-03 force transducers. […]
Potencies of the compounds are determined by calculating the apparent dissociation constants (KB) for each concentration tested using the standard equation: […]
where dose ratio=antilog[(agonist-log molar EC50 without compound)-(agonist-log molar EC50 with compound)]. The KB values are converted to the negative logarithms and expressed as -log molar KB (i.e. pKB). […] The EC50 values are converted to negative logarithms and expressed as -log molar EC50. Maximum relaxation responses to ASMSP are determined by expressing the maximum response to the agonist as a percentage of the relaxation caused by papaverine.

SMILES strings stand for the structures. Where a name gives a salt, the structure may show the parent alone.

T1 sequence (G1SEI7 1-407): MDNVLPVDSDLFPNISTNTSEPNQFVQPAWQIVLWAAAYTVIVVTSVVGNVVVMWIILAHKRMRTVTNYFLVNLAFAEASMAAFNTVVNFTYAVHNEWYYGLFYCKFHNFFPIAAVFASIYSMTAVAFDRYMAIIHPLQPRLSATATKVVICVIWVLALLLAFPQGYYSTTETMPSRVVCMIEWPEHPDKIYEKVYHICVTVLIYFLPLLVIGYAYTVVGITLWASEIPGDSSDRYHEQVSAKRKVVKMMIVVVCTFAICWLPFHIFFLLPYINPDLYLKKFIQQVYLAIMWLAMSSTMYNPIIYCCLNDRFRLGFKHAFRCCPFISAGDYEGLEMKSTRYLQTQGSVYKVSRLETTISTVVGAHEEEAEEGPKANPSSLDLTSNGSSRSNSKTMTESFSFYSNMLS

For the molecule `COc1ccccc1CC(=O)N(C)CC(c1ccc(Cl)c(Cl)c1)N1CCC(O)(c2ccccc2)CC1` (stereo not shown) [Example 2, N-[2-(3,4-Dichlorophenyl)-2-(4-hydroxy-4-phenylpiperidino)ethyl]-N-methyl-2-methoxyphenylacetamide hydrochloride salt], the Kb is 631 nM.
